{"source": "patent EP4458916A1", "about": "“PHOTOCATALYTICALLY ACTIVE COATING COMPOSITION, METHOD FOR THE PRODUCTION THEREOF AND USE THEREOF” (priority 2023, dated 2024)", "key": {"[1]": {"system": "verschiedene Bakterienstämme", "assay": "Bacteria test following modified ISO 22196, photodynamic effect of a SolGel coating on different bacterial strains", "type": "cell-based", "details": "Rezeptur 5 coating on Melamin, 2 mM, 4 h", "description": "(§1) Die Bestimmung der antimikrobiellen Aktivität erfolgte nach einer modifizierten Version der ISO 22196:2011-08 (\"Messung von antibakterieller Aktivität auf Kunststoff- und anderen porenfreien Oberflächen\", Ausgabedatum: 2011-08).\n(§2) Bei der Testdurchführung wurde ein dünner Flüssigkeitsfilm, in dem die Bakterien enthalten sind (1,25 x 10^4 /cm2), direkt auf die Probekörper (2,5 cm x 2,5 cm) aufgebracht. Direkt nach Beimpfung wurden von der Nullprobe die Bakterien von den Probekörperoberflächen mittels Ultraschall und Vortexen abgelöst und die Keimzahl (KBE (engl. CFU), Kolonie-bildende Einheit) bestimmt (t0-Wert). Ein weiterer Satz Nullproben und antimikrobiell ausgestatteter Proben wurden mit Bakterien im Flüssigkeitsfilm bei Raumtemperatur inkubiert. Nach 4 h wurden überlebende Bakterien von den Probekörperoberflächen mittels Ultraschall und Vortexen abgelöst und die Keimzahl bestimmt (t4-Wert).\n(§3) Im Unterschied zu der in der ISO 22196:2011-08 beschriebenen Methode wurde das Inokulum nicht mit einer Folie abgedeckt und die Inkubationszeit von 24 auf 4 Stunden reduziert. Weiterhin wurden die Platten der Proben 3 und 4 mit Licht mit einer Intensität von 300 µW/cm2 belichtet.\nDie Ergebnisse sind Tabelle 53 dargestellt. Tabelle 53: Photodynamische Wirkung einer SolGel Beschichtung gegen verschiedene Bakterienstämme"}, "S.aureus": {"system": "S.aureus", "type": "cell-based", "details": "for Log10 Reduktion Dunkelkontrolle 1 mM / Log10 Reduktion Dunkelkontrolle 2 mM: dark; for Log10 Reduktion Wirksamkeit 1 mM / Log10 Reduktion Wirksamkeit 2 mM: light"}, "Bakterien [2]": {"system": "Bakterien", "assay": "Durability: bacteria test (ISO 22196) after immersion in Incidin Plus (10% in water) or isopropanol (70% in water)", "type": "cell-based", "details": "4 h, Rezeptur 2 (Borsäure) on Melamin, 2 mM", "description": "as §1, §2, §3\nUm die Haltbarkeit der Beschichtung bzw. das Auswaschen des Farbstoffs gegen gängige Reinigungs- und Desinfektionsmitteln, wurden damit Immersionstests in Incidin Plus (Ecolab GmbH, 10% in Wasser, Farbstoff S-25a) und Isopropanol (70% in Wasser) durchgeführt.\nDer Bakterientest wurde in Anlehnung an ISO 22196 nach oben beschriebener Methode durchgeführt. Die Ergebnisse sind in den Tabellen 59 und 60 zusammengefasst. Tabelle 59: Mikrobiologische Wirksamkeit (Iog10 Reduktion) nach X h Immersion in Incidin Plus (10% in Wasser)."}, "Bakterien [3]": {"system": "Bakterien", "assay": "Photostability: bacteria test (ISO 22196) after simulated long-term illumination (18 mW/cm^2, 405 nm)", "type": "cell-based", "details": "4 h, Rezeptur 2 (Borsäure) on Melamin, 2 mM", "description": "as §1, §2, §3\nZur Bewertung der Photostabilität des Farbstoffs S-25a (2 mM) in der Beschichtung wurden beschichtete Flächen mit 18 mW/cm^2 (405 nm, ca. 200 Fache Raumlichtintensität, Zeitrafferversuch) bestrahlt. So wurde eine Echtzeit-Photostabilität von 2 Jahren simuliert.\nDer Bakterientest wurde in Anlehnung an ISO 22196 nach oben beschriebener Methode durchgeführt. Die Ergebnisse sind in der Tabelle 61 zusammengefasst. Tabelle 61: Mikrobiologische Wirksamkeit nach simulierter Photobelastung für 1, 2, 3, 6, 12 und 24 Monate"}, "Bakterien [4]": {"system": "Bakterien", "assay": "Thermal ageing: bacteria test (ISO 22196) after accelerated ageing ASTM F1980-16 at 60°C for 4 weeks", "type": "cell-based", "details": "4 h, beschleunigte Alterung 60°C, Rezeptur 2 (Borsäure) on Melamin, 2 mM", "description": "as §1, §2, §3\nZur Beurteilung der Schicht auf Alterungsprozesse, wurde eine beschleunigte Alterung nach ASTM F1980-16 bei 60°C für 4 Wochen durchgeführt.\nDer Bakterientest wurde in Anlehnung an ISO 22196 nach oben beschriebener Methode durchgeführt. Die Ergebnisse sind in der Tabelle 62 zusammengefasst. Tabelle 62: Mikrobiologische Wirksamkeit (log10 Reduktion) bei beschleunigter Alterung (60°C)."}, "Bakterien [5]": {"system": "Bakterien", "assay": "Room light tests (Raumlichtversuche): antimicrobial efficacy at 10 µW/cm^2 for 24 h", "type": "cell-based", "details": "Farbstoff 5 mM, coating Rezeptur 3, Beispiel 2a (2,5 eq aqueous boric acid, 50 mM)", "method": "Um die antimikrobielle Wirksamkeit in einem realen Szenario abzuschätzen, wurden sogenannte Raumlichtversuche durchgeführt. Dazu wurden die mit Bakterien versetzten Probenträger mit einer, für Innenräume repräsentativen Lichtintensität von 10 µW/cm^2 für einen Zeitraum von 24 h bestrahlt.\nHerstellung der Beschichtung erfolgte gemäß Beispiel 2a (2,5 eq wässrige Borsäure, 50 mM), mit Rezeptur 3. Die Ergebnisse sind in der Tabelle 63 zusammengefasst. Tabelle 63: Antimikrobielle Wirksamkeit bei Raumlichtbedingungen"}, "I. monocytoqenes": {"system": "I. monocytoqenes", "assay": "Bacteria test following modified ISO 22196, photodynamic effect of different photocatalysts in the SolGel coating on I. monocytoqenes", "type": "cell-based", "details": "Rezeptur 4 nach Beispiel 5 on Melamin; 4 h, dark", "description": "as §1, §2, §3\nDer Bakterientest wurde in Anlehnung an ISO 22196 nach oben beschriebener Methode durchgeführt. Die Ergebnisse sind Tabelle 57a bis 57b dargestellt. Tabelle 57a: Photodynamische Wirkung verschiedener Katalysatoren in der SolGel Beschichtung gegen S.aureus"}, "verschiedene Virenstämme": {"system": "verschiedene Virenstämme", "assay": "Virus test following ISO 21702, photodynamic effect of a SolGel coating on different virus strains", "details": "read-out: Log10 Reduktion Probe"}, "[6]": {"details": "Rezeptur 2, Verdünnung mit IPA 1:2"}, "[7]": {"details": "Rezeptur 2, Verdünnung mit IPA 1:5"}, "[8]": {"details": "Rezeptur 2, Verdünnung mit IPA 1:8"}}, "note": "Where two headings read alike, the source gives them in different places."}
{"smiles": "CC(C)(O)c1cc[n+](CC2=Cc3cccc4cccc(c34)C2=O)cc1", "note": "[S-25a]", "values": [{"measurement": "log reduction at 2000 µM", "setting": "[1]; Acinetobacter baumannii, ATCC15308, A. baumanii ATCC 15308 (Gram negativ), 300 µW/cm2, read-out: Log10 Reduktion Probe", "value": "> 4"}, {"measurement": "log reduction at 2000 µM", "setting": "[1]; Acinetobacter baumannii, ATCC15308, A. baumanii ATCC 15308 (Gram negativ), dark, read-out: Log10 Reduktion Dunkelkontrolle", "value": 0.1}, {"measurement": "log reduction at 2000 µM", "setting": "[1]; Enterococcus faecium, E.faecium EDCC 5271 (Gram positiv), 300 µW/cm2, read-out: Log10 Reduktion Probe", "value": "> 4"}, {"measurement": "log reduction at 2000 µM", "setting": "[1]; Enterococcus faecium, E.faecium EDCC 5271 (Gram positiv), dark, read-out: Log10 Reduktion Dunkelkontrolle", "value": 0}, {"measurement": "log reduction at 2000 µM", "setting": "[1]; Staphylococcus aureus, ATCC6538, S.aureus ATCC 6538 (Gram positiv), 300 µW/cm2, read-out: Log10 Reduktion Probe", "value": "> 4"}, {"measurement": "log reduction at 2000 µM", "setting": "[1]; Staphylococcus aureus, ATCC6538, S.aureus ATCC 6538 (Gram positiv), dark, read-out: Log10 Reduktion Dunkelkontrolle", "value": 0.1}, {"measurement": "Log10 Reduktion Dunkelkontrolle 1 mM", "setting": "S.aureus; [6]", "value": "0,1±0,4"}, {"measurement": "Log10 Reduktion Dunkelkontrolle 2 mM", "setting": "S.aureus; [6]", "value": "0,0±0,0"}, {"measurement": "Log10 Reduktion Wirksamkeit 1 mM", "setting": "S.aureus; [6]", "value": "3,0±0,2"}, {"measurement": "Log10 Reduktion Wirksamkeit 2 mM", "setting": "S.aureus; [6]", "value": "3,3±0,5"}, {"measurement": "Log10 Reduktion Dunkelkontrolle 1 mM", "setting": "S.aureus; [7]", "value": "0,0±0,2"}, {"measurement": "Log10 Reduktion Dunkelkontrolle 2 mM", "setting": "S.aureus; [7]", "value": "0,1±0,1"}, {"measurement": "Log10 Reduktion Wirksamkeit 1 mM", "setting": "S.aureus; [7]", "value": "2,0±0,2"}, {"measurement": "Log10 Reduktion Wirksamkeit 2 mM", "setting": "S.aureus; [7]", "value": "2,8±0,2"}, {"measurement": "Log10 Reduktion Dunkelkontrolle 1 mM", "setting": "S.aureus; [8]", "value": "0,0±0,2"}, {"measurement": "Log10 Reduktion Dunkelkontrolle 2 mM", "setting": "S.aureus; [8]", "value": "0,0±0,1"}, {"measurement": "Log10 Reduktion Wirksamkeit 1 mM", "setting": "S.aureus; [8]", "value": "1,5±0,1"}, {"measurement": "Log10 Reduktion Wirksamkeit 2 mM", "setting": "S.aureus; [8]", "value": "2,7±0,6"}, {"measurement": "log reduction at 2000 µM", "setting": "Bakterien [2]; Immersion in Incidin Plus (10% in Wasser) 0 h, read-out: Log10 Reduktion nach 0 h, Probe", "value": 3.7}, {"measurement": "log reduction at 2000 µM", "setting": "Bakterien [2]; Immersion in Incidin Plus (10% in Wasser) 1 h, dark, read-out: Log10 Reduktion nach 1 h, Dunkelkontrolle", "value": 0.8}, {"measurement": "log reduction at 2000 µM", "setting": "Bakterien [2]; Immersion in Incidin Plus (10% in Wasser) 1 h, read-out: Log10 Reduktion nach 1 h, Probe", "value": 2.6}, {"measurement": "log reduction at 2000 µM", "setting": "Bakterien [2]; Immersion in Incidin Plus (10% in Wasser) 2 h, read-out: Log10 Reduktion nach 2 h, Probe", "value": 2.4}, {"measurement": "log reduction at 2000 µM", "setting": "Bakterien [2]; Immersion in Incidin Plus (10% in Wasser) 3 h, read-out: Log10 Reduktion nach 3 h, Probe", "value": 1.4}, {"measurement": "log reduction at 2000 µM", "setting": "Bakterien [3]; 2 Monate simulated, dark, read-out: Log10 Reduktion nach x Monaten simulierter Belastung: 2, Dunkelkontrolle", "value": 0.2}, {"measurement": "log reduction at 2000 µM", "setting": "Bakterien [3]; 3 Monate simulated, dark, read-out: Log10 Reduktion nach x Monaten simulierter Belastung: 3, Dunkelkontrolle", "value": 0.2}, {"measurement": "log reduction at 2000 µM", "setting": "Bakterien [3]; 24 Monate simulated, dark, read-out: Log10 Reduktion nach x Monaten simulierter Belastung: 24, Dunkelkontrolle", "value": 0.2}, {"measurement": "log reduction at 2000 µM", "setting": "Bakterien [3]; pre-illumination 18 mW/cm^2, 405 nm, 0 Monate, read-out: Log10 Reduktion nach x Monaten simulierter Belastung: Start (0), Probe", "value": 4.7}, {"measurement": "log reduction at 2000 µM", "setting": "Bakterien [3]; pre-illumination 18 mW/cm^2, 405 nm, 1 Monat simulated, read-out: Log10 Reduktion nach x Monaten simulierter Belastung: 1, Probe", "value": 4.6}, {"measurement": "log reduction at 2000 µM", "setting": "Bakterien [3]; pre-illumination 18 mW/cm^2, 405 nm, 2 Monate simulated, read-out: Log10 Reduktion nach x Monaten simulierter Belastung: 2, Probe", "value": 4.3}, {"measurement": "log reduction at 2000 µM", "setting": "Bakterien [3]; pre-illumination 18 mW/cm^2, 405 nm, 3 Monate simulated, read-out: Log10 Reduktion nach x Monaten simulierter Belastung: 3, Probe", "value": 4.2}, {"measurement": "log reduction at 2000 µM", "setting": "Bakterien [3]; pre-illumination 18 mW/cm^2, 405 nm, 6 Monate simulated, read-out: Log10 Reduktion nach x Monaten simulierter Belastung: 6, Probe", "value": 4.3}, {"measurement": "log reduction at 2000 µM", "setting": "Bakterien [3]; pre-illumination 18 mW/cm^2, 405 nm, 12 Monate simulated, read-out: Log10 Reduktion nach x Monaten simulierter Belastung: 12, Probe", "value": 4.3}, {"measurement": "log reduction at 2000 µM", "setting": "Bakterien [3]; pre-illumination 18 mW/cm^2, 405 nm, 24 Monate simulated, read-out: Log10 Reduktion nach x Monaten simulierter Belastung: 24, Probe", "value": 4.3}, {"measurement": "log reduction at 2000 µM", "setting": "Bakterien [4]; 0 Wo, dark, read-out: Log10 Reduktion nach 0 Wo, Dunkelkontrolle", "value": 0.1}, {"measurement": "log reduction at 2000 µM", "setting": "Bakterien [4]; 0 Wo, read-out: Log10 Reduktion nach 0 Wo, Probe", "value": 3.9}, {"measurement": "log reduction at 2000 µM", "setting": "Bakterien [4]; 1 Wo, dark, read-out: Log10 Reduktion nach 1 Wo, Dunkelkontrolle", "value": 0}, {"measurement": "log reduction at 2000 µM", "setting": "Bakterien [4]; 1 Wo, read-out: Log10 Reduktion nach 1 Wo, Probe", "value": 3.8}, {"measurement": "log reduction at 2000 µM", "setting": "Bakterien [4]; 2 Wo, dark, read-out: Log10 Reduktion nach 2 Wo, Dunkelkontrolle", "value": 0}, {"measurement": "log reduction at 2000 µM", "setting": "Bakterien [4]; 2 Wo, read-out: Log10 Reduktion nach 2 Wo, Probe", "value": 3.4}, {"measurement": "log reduction at 2000 µM", "setting": "Bakterien [4]; 3 Wo, dark, read-out: Log10 Reduktion nach 3 Wo, Dunkelkontrolle", "value": 0.3}, {"measurement": "log reduction at 2000 µM", "setting": "Bakterien [4]; 3 Wo, read-out: Log10 Reduktion nach 3 Wo, Probe", "value": 3.3}, {"measurement": "log reduction at 2000 µM", "setting": "Bakterien [4]; 4 Wo, dark, read-out: Log10 Reduktion nach 4 Wo, Dunkelkontrolle", "value": 0.4}, {"measurement": "log reduction at 2000 µM", "setting": "Bakterien [4]; 4 Wo, read-out: Log10 Reduktion nach 4 Wo, Probe", "value": 2.8}, {"measurement": "log reduction at 5000 µM", "setting": "Bakterien [5]; 24 h, dark control, read-out: Log10 Reduktion Dunkelkontrolle", "value": 1.1}, {"measurement": "log reduction at 5000 µM", "setting": "Bakterien [5]; illuminated 10 µW/cm^2 for 24 h, read-out: Log10 Reduktion 24 h", "value": 2.6}, {"measurement": "I. monocytoqenes Log10 Reduktion Dunkelkontrolle", "setting": "I. monocytoqenes", "value": "0,0±0,1"}, {"measurement": "log reduction at 2000 µM", "setting": "verschiedene Virenstämme; 83 min", "value": 5.5}, {"measurement": "log reduction at 2000 µM", "setting": "verschiedene Virenstämme; Influenza A virus, H1N1, 83 min", "value": 3.8}, {"measurement": "log reduction at 2000 µM", "setting": "verschiedene Virenstämme; unidentified adenovirus, 83 min", "value": 2}]}
